Test results as given in US20230096766A1, “AMINO ACID HAVING FUNCTIONAL GROUP CAPABLE OF INTERMOLECULAR HYDROGEN BONDING, PEPTIDE COMPOUND CONTAINING SAME AND METHOD FOR PRODUCTION THEREOF” (Chugai Seiyaku Kabushiki Kaisha, priority 2018, published 2023).
*1 amine or outer side, *2 acyl side, *3 side chain or, on linkers, in order; H or OH if unused. Where a SMILES comes first, the peptide text is derived from it. Bridges are numbered along the chain shown (N, C = ends). [ ]: non-standard residue; d: D form. The star is where a group is joined. ξ: configuration not given here. Phe(3-OMe,4-CONHMs) = COc1cc(C[C@H](N)C(=O)O)ccc1C(=O)NS(C)(=O)=O; X15 = CCCCN(CC(=O)C(C)[C@@H](CC(C)C)C(=O)[*:2])[*:1]; CH2(1,2,4-oxadiazolon-3-yl) = O=c1[nH]c(C*)no1; NMePhe(3-Cl) = CN[C@@H](Cc1cccc(Cl)c1)C(=O)O; Hyp = O=C(O)[C@@H]1C[C@@H](O)CN1; NMeF = CN[C@@H](Cc1ccccc1)C(=O)O; NMeI = CC[C@H](C)[C@H](NC)C(=O)O; NMeL = CN[C@@H](CC(C)C)C(=O)O; dNMeL = CN[C@H](CC(C)C)C(=O)O; NMeV = CN[C@H](C(=O)O)C(C)C; NMeAbu = CC[C@H](NC)C(=O)O; Pip = O=C(O)[C@@H]1CCCCN1; NMeA = CN[C@@H](C)C(=O)O; Piperidide = C1CCN(*)CC1; dNMeA = CN[C@H](C)C(=O)O; NBuGly = CCCCNCC(=O)O; Ethyl(2-OH) = OCC*; ξS = NC(CO)C(=O)O; Sar = CNCC(=O)O; tBu = CC(C)(C)*

Test: Membrane permeability test of cyclic peptides (Caco-2, modified/improved method of WO 2018/124162)
Settings: human, Caco-2, Caco-2 (cm/sec), Table 36; Papp; sequences having Papp ≥ 1.0 × 10^−6 at ARC = 3

| SMILES | Papp [×10⁻⁶ cm/s] |
| --- | --- |
| CC[C@H](C)[C@@H]1NC(=O)[C@H](CC(C)C)N(C)C(=O)[C@H](C)N(C)C(=O)[C@H]([C@@H](C)O)NC(=O)[C@H](Cc2ccccc2)N(C)C(=O)[C@H](C)N(C)C(=O)[C@@H](C)N(C)C(=O)C[C@@H](C(=O)N(C)[C@@H](Cc2ccccc2)C(=O)N(C)[C@@H](Cc2ccccc2)C(=O)N[C@@H](C)C(=O)N2CCCCC2)NC(=O)[C@H](C(C)C)N(C)C(=O)[C@H](CC(C)C)N(C)C1=O [pd201] ([dNMeA][NMeA][NMeF]T[NMeA][NMeL]I[NMeL][NMeV]D[NMeF][NMeF]A-Piperidide; lactam N-10) | 2.3 |

Same assay, conditions: human, Caco-2, Caco-2 (cm/sec), membrane permeability of cyclic peptides, Caco-2

| SMILES | Papp [×10⁻⁶ cm/s] |
| --- | --- |
| CCCCN1CC(=O)N(C)[C@@H](CC(C)C)C(=O)NC(COCc2noc(=O)[nH]2)C(=O)N(C)[C@@H](CC(C)C)C(=O)N(C)[C@@H](CC(C)C)C(=O)N[C@H](C(=O)N2CCCCC2)CC(=O)N[C@H](C(C)C)C(=O)N(C)[C@@H](Cc2ccccc2)C(=O)N[C@@H](CC(C)C)C(=O)N(C)[C@@H](CC(C)C)C(=O)N[C@@H]([C@@H](C)O)C1=O (stereo partly drawn) [AP43] ([dV][NMeF]L[NMeL]T[NBuGly][NMeL][ξS](CH2(1,2,4-oxadiazolon-3-yl))[NMeL][NMeL]D-Piperidide; lactam N-11) | 0.82 |
| CCCCN1CC(=O)N(C)[C@@H](CC(C)C)C(=O)N[C@H](C(=O)N2CCCCC2)CC(=O)N(C)[C@@H](CC(C)C)C(=O)NC(COCc2noc(=O)[nH]2)C(=O)N(C)[C@@H](CC(C)C)C(=O)N(C)[C@@H](CC(C)C)C(=O)N[C@@H](C(C)C)C(=O)N(C)[C@@H](Cc2ccccc2)C(=O)N(C)[C@@H](CC(C)C)C(=O)N[C@@H]([C@@H](C)O)C1=O (stereo partly drawn) [AP48] ([NMeL][ξS](CH2(1,2,4-oxadiazolon-3-yl))[NMeL][NMeL]V[NMeF][NMeL]T[NBuGly][NMeL]D-Piperidide; lactam N-11) | 0.4 |
| CCCCN1CC(=O)N(C)[C@@H](CC(C)C)C(=O)N[C@@H](COC(C)(C)C)C(=O)N(C)[C@@H](CC(C)C)C(=O)N(C)[C@@H](CC(C)C)C(=O)N[C@H](C(=O)N2CCCCC2)CC(=O)N[C@H](CC(C)C)C(=O)N(C)[C@@H](Cc2ccccc2)C(=O)NC(COCc2noc(=O)[nH]2)C(=O)N(C)[C@@H](CC(C)C)C(=O)N[C@@H]([C@@H](C)O)C1=O (stereo partly drawn) [AP45] ([dL][NMeF][ξS](CH2(1,2,4-oxadiazolon-3-yl))[NMeL]T[NBuGly][NMeL]S(tBu)[NMeL][NMeL]D-Piperidide; lactam N-11) | 1.4 |
| CC(C)C[C@@H]1NC(=O)[C@@H]2CCCCN2C(=O)[C@H](Cc2ccccc2)NC(=O)[C@H](C(C)C)N(C)C(=O)[C@H](CC(C)C)N(C)C(=O)[C@H]([C@@H](C)O)NC(=O)[C@H](CC(C)C)N(C)C(=O)[C@@H]2C[C@@H](OCCO)CN2C(=O)[C@H](CC(C)C)N(C)C(=O)[C@@H](CC(C)C)N(C)C(=O)C[C@@H](C(=O)N2CCCCC2)NC1=O [AP236] ([dNMeL][NMeL][Hyp](Ethyl(2-OH))[NMeL]T[NMeL][NMeV]F[Pip]LD-Piperidide; lactam N-11) | 3.8 |
| CC[C@H](C)[C@H]1C(=O)N[C@@H]([C@@H](C)O)C(=O)N(C)CC(=O)N(C)[C@@H](CC)C(=O)N[C@H](C(=O)N2CCCCC2)CC(=O)N(C)[C@@H](CC(C)C)C(=O)N[C@@H](Cc2ccc(C(=O)NS(C)(=O)=O)c(OC)c2)C(=O)N(C)[C@@H](CC(C)C)C(=O)N(C)[C@@H](Cc2ccccc2)C(=O)N[C@@H](CC(C)C)C(=O)N(C)[C@@H](CC(C)C)C(=O)N1C [AP139] ([NMeL][Phe(3-OMe,4-CONHMs)][NMeL][NMeF]L[NMeL][NMeI]T[Sar][NMeAbu]D-Piperidide; lactam N-11) | < 0.25 |
| CCCCN1CC(=O)N(C)[C@@H](Cc2cccc(Cl)c2)C(=O)N(C)[C@@H](CC(C)C)C(=O)N[C@@H]([C@@H](C)CC)C(=O)N(C)[C@@H](CC(C)C)C(=O)N[C@H](C(=O)N2CCCCC2)CC(=O)N(C)CC(=O)N(C)[C@@H](CC(C)C)C(=O)NC(COCc2noc(=O)[nH]2)C(=O)N(C)[C@@H](CC(C)C)C(=O)N[C@@H]([C@@H](C)O)C1=O (stereo partly drawn) [AP49] ([Sar][NMeL][ξS](CH2(1,2,4-oxadiazolon-3-yl))[NMeL]T[NBuGly][NMePhe(3-Cl)][NMeL]I[NMeL]D-Piperidide; lactam N-11) | 0.33 |
| CCCCN1CC(=O)C(C)[C@@H](CC(C)C)C(=O)NC(COCc2noc(=O)[nH]2)C(=O)N(C)[C@@H](Cc2ccccc2)C(=O)N(C)[C@@H](CC(C)C)C(=O)N[C@H](C(=O)N2CCCCC2)CC(=O)N[C@H](CC(C)C)C(=O)N(C)[C@@H](CC(C)C)C(=O)N[C@@H]([C@@H](C)CC)C(=O)N(C)[C@@H](CC(C)C)C(=O)N[C@@H]([C@@H](C)O)C1=O (stereo partly drawn) [AP44] ([dL][NMeL]I[NMeL]T[X15][ξS](CH2(1,2,4-oxadiazolon-3-yl))[NMeF][NMeL]D-Piperidide; lactam N-10) | 0.3 |
